Results on 2 compounds are retold here after US20150283127A1, “SAQUINAVIR-NO FOR IMMUNOMODULATION” (ONCONOX APS, priority 2012, published 2015).

Data set [1] concerns experimental autoimmune uveoretinitis (EAU). The data set can be described thus: Experimental autoimmune uveoretinitis (EAU) in the Wistar rat, histology. The data set is classed as in vivo. As for the experimental part:
Female Wistar Rats n=28 (8 weeks-old) were purchased from Pasteur Institute (Algiers, Algeria). These rats were acclimated to their new environment for one week before the start of experiments and kept under normal conditions with a 12 h dark/light cycle and free access to food and water.
These animals were divided into four groups:
Control group (n=6) it consisted in non treated animals
Vehicle group (n=6) received a daily intraperitoneal injection of DMSO at 20% starting from the day of immunization.
Retinal crude extract immunized rats (referred to as EAU group n=8) received a single subcutaneous injection of 200 μL with Retinal Crude Extract emulsified in complete Freund's adjuvant; CFA (v/v) and were left untreated.
SaqNO (reference) treated rats (n=8) they received a daily intraperitoneal injection of SaqNO at 10 μg/kg starting from the day of immunization.
Fresh bovine eyes (n=20) were used in the experiments. They were cut just in posterior to the ora serrata, the vitreous was then removed without causing retinal detachment. The retinas were removed carefully and put in PBS, pH 7.4. They were then subjected to three successive thermal shock (−20° C. and +37°) in order to release retinal antigens. The retinal crude extract was obtained after a centrifugation at 4000 rpm for 15 min and conserved at −20° C. until further utilization.
[…]. In parallel, all rats from each group were also sacrificed.
For histopathological analysis, eyes were enucleated from each group and fixed in 10% phosphate-buffered formaldehyde. Tissue sections of 5 μm thickness were stained with hematoxylin and eosin (H&E). Sections were examined using a standard microscope (Zeiss) and pictures were taken using a digital camera at ×40 resolution Histological criteria were based on the degree of architectural changes. The histological scores were assessed semi-quantitatively by microscopic examination as follows:
No morphological changes, 0; minimal morphological changes of the outer nuclear layer (ONL) in retina, 1; atrophy of INL, 2; disappearance of INL, 3; and damage of total retinal layers, 4.

Data set [2] deals with murine CD4+ cells. In words: Viability of murine CD4+ cells. Format: cell-based, mouse. Particulars: 24 hours; effect less than on cytokine generation. How it is done:
In order to assess the viability of SPC, LNC, DLNC and SCC by mitochondrial activity assay we used the mitochondrial-dependent reduction of 3-(4,5-dimethylthiazol-2-yl)-[…] (MTT) to formazan. At the end of appropriate treatments, SPC and LNC were collected in tubes, spun down, supernatants removed and the cell pellets dissolved in […] MTT (Sigma-Aldrich) solution. Incubation with MTT lasted for 30 minutes at 37° C. and cells were centrifuged once more. DMSO was added to the pellets to dissolve the formazan crystals. The absorbances in MTT assay were measured at […], with a correction at 690 nm, using an automated microplate reader (LKB 5060-006, LKB, Vienna, Austria).
CD4+ cells were purified from C57BL/6 SPC and stimulated with anti-CD3 and anti-CD28 antibodies in the presence of various concentrations of Saq-NO for 24 hours. The influence of Saq-NO on cytokine generation was compared to its influence on CD4+ cell viability and to the influence of Saq on the same parameters. […] Thus, Saq-NO directly affects T cell cytokine production.

In data set [3] the test system is rat LNC. In words: Cytokine generation (ELISA) in ConA-stimulated rat LNC. The data set is classed as cell-based. Conditions: 24 hours, vs untreated control cells. From the text:
Experimental animals (C57BL/6 mice, BALB/c mice and Dark Agouti rats) were obtained from the Animal House Facility of the Institute for Biological Research “Sinisa Stanković”, Belgrade, Serbia. Spleen cells (SPC) were isolated from murine spleens and lymph node cells (LNC) were obtained from rat cervical lymph nodes of untreated animals. Draining lymph node cells (DLNC) were obtained from popliteal lymph nodes 8-10 days after immunization of rats with myelin basic protein (guinea pig MBP, kind gift from professor Alexander Fluegel, University of Goettingen, Germany) and complete Freund's adjuvant (CFA, Difco, Detroit, Mich.). […] Obtained purity of CD4 population was more than 97% as determined by flow cytometry. […]
Cytokine concentration in cell culture supernatants was determined by sandwich ELISA using MaxiSorp plates (Nunc, Rochild, Denmark) and anti-cytokine paired antibodies according to the manufacturer's instructions. Samples were analyzed in duplicate for murine/rat IL-17, murine IL-10, murine TNF, murine IL-4 (eBioscience), murine IFN-γ, rat IFN-γ, rat IL-4 (R&D, Minneapolis, Minn.), rat IL-10 and rat TNF (BD Biosciences). The results were calculated using standard curves made on the basis of known concentrations of the appropriate recombinant cytokines. […]
Background: In an ELISA, binding on a coated surface is turned into a signal by an enzyme label.

Data set [4] concerns peripheral blood mononuclear cells. Conditions: concentrations between 5 and 20 mM; cited from earlier work.
Data set [5] deals with human PBMC. Conditions: PMA plus ionomycin, cited from earlier work.

With `CC(C)(C)NC(=O)C1C[C@@H]2CCCC[C@@H]2CN1CC(O[N+](=O)[O-])[C@H](Cc1ccccc1)NC(=O)C(CC(N)=O)NC(=O)c1ccc2ccccc2n1` (stereo partly drawn) [Saq-NO, nitric ester of Saquinavir], the Uveitis clinical score entry in data set [1] (10 μg/kg daily, P<0.05) is “improved significantly”. Besides, in data set [1] (10 μg/kg i.p. daily from immunization, day 14), the “Histological structure of retinal tissue” value was “ameliorated significantly”. Further, in data set [1] (10 μg/kg, P<0.05), the Histopathological scores entry is “ameliorated”. Also, in data set [1] (prophylactic treatment), the “Development of EAU” value is reported as “prevents development of EAU”. Further, the “CD4+ cell viability” value in data set [2] was “statistically significantly inhibited”. In data set [3], the “Release of the examined cytokines IFN-g, IL-17, IL-10 and TNF” value is “dose-dependently inhibited”.
For the compound `CC(C)(C)NC(=O)[C@@H]1C[C@@H]2CCCC[C@@H]2CN1C[C@@H](O)[C@H](Cc1ccccc1)NC(=O)[C@H](CC(N)=O)NC(=O)c1ccc2ccccc2n1` [Saq, (2S)—N-[(2S,3R)-4-[(3S)-3-(tert-butylcarbamoyl)-decahydroisoquinolin-2-iy]-3-hydroxy-1-phenylbutan-2-il]-2-(quinolin-2-ylformamido)butanediamide, reference compound], the “PHA or anti-CD3-induced proliferation” value in data set [4] is “inhibited”. Moreover, in data set [5] (10 to 20 μM), the TNF-alpha synthesis entry is reported as “without influencing”. For the same compound, the “Synthesis of IL-2 and IFN-gamma production” value in data set [5] (concentration between 10 and 20 μM) was “downregulate”.
